Experimental data: patent publication US20250281440A1, “METHOD TO IMPROVE GROWTH PERFORMANCE, LIVABILITY, CARCASS CHARACTERISTICS AND/OR MILK QUALITY IN SWINE” (NutriQuest, LLC, priority 2024, published 2025)
Values joined by “and” are separate entries in the source; they are usually repeats but may differ in a detail not shown here. Equal entries are not always repeated. Marks after values point to notes of the source that are not given here.

Key:
lactating sows = test: Serum non-esterified fatty acids (NEFA) in lactating sows (Example 6); type: in vivo, pigs; settings: 445 mg Na-DMG per day, measured at weaning
Source text: Serum non-esterified fatty acids (NEFA) are molecules released from adipose tissue during periods of energy demand or catabolic status. In research of energy metabolism, NEFA level has been used as biomarker to assess balance between fat mobilization and energy expenditure.

sows (PIC 1050) = test: Milk fat content in sows fed Na-DMG (78%) (Example 2); type: in vivo, pigs
finishing pigs = test: Meta-analysis (3-trial combined) of morbidity, mortality and F/G in late finishing pigs fed Na-DMG (Examples 5 and 7); type: in vivo
Source text: Three studies were compiled to evaluate the effects of dietary supplementation of Na-DMG (78%) on morbidity and mortality in finishing pigs. In each study, pigs were fed either a Control diet or diet containing Na-DMG at 0.50 lb/ton from approximately 180 lb of body weight until harvested at 290 lb for a period of 6 to 8 weeks. […] Reasons of morbidity and mortality included, but not limited to, lameness, ileitis, bacterial infection, injury, prolapse, intestinal torsion, stomach ulcers, abdominal rupture, bloat, failure to eat.
(§1) Animals produce greenhouse gases due to biological processes for growth and maintenance functions. Pig production would therefore be a source of greenhouse gases and wean to finish production would result in production of carbon dioxide, methane, and nitrous oxide emissions. Using the Iowa Pork Industry's sustainability calculator, we calculated the impact feedings of DMG in late finishing would have on greenhouse gas emissions. […] We then took similar estimates for early performance and estimated F/G and mortality for an entire grow-out period to use in the calculator. The calculator provides equivalent lb. of carbon dioxide per lb. or market weight for comparison purposes. By adding DMG in late finishing, carbon dioxide emissions were reduced by 3% during the entire wean to finish grow-out.

growing pigs = test: Incidence of lameness in pigs fed DMG (Example 4); type: in vivo
Procedure: A total of 1,180 growing pigs (initial BW=51.4±1.0 lb) were housed in pens with 25 to 27 pigs per pen. […] This experiment extended over a 17-wk period until pigs were harvested at 292.5±1.7 lb of BW. Signs of lameness were recorded, and percentage of pigs removed to hospital pens due to lameness were calculated (Table 3).

[1] = test system: commercial finishing pigs; test: Growth performance, livability and carcass characteristics of finishing pigs fed DMG (Example 3); type: in vivo; settings: for ADFI / Carcass yield / Closeout ADG / Closeout G/F / End BW / Fat depth / Fat-free carcass lean / Hot carcass weight / Loin depth / Non-selected pigs (lights and culls) / Morbidity / Mortality / Pigs sold to primary market: 8-wk
Source text: To evaluate the impact of increasing dietary levels of 78% sodium dimethylglycine (DMG) on growth performance, livability, and carcass characteristics of commercial finishing pigs, a total of total of 1,115 mixed-sex finishing pigs (initial BW=70.1±1.8 kg) were housed in pens with 25 to 27 pigs per pen. Pens within block were assigned randomly to one of four dietary treatments containing 0 (Control), 0.25 (DMG_0.25), 0.5 (DMG_0.5) or 1.0 (DMG_1.0) g DMG/kg of feed with 11 replicates per treatment. This experiment extended over an 8-wk period until pigs were harvested at 125.4±0.8 kg of BW.
Data were analyzed using the MIXED procedure of SAS, and preplanned orthogonal contrasts were conducted to evaluate pairwise comparisons as well as linear and quadratic effects related to the increased levels of DMG. While no linear effect was observed, there was a tendency for a quadratic response in closeout feed efficiency (G/F, P=0.08) and the percentage of pigs with morbidity (P=0.06), with the most favorable responses found in pigs fed DMG_0.25 (Table 2).

sows = sows fed DMG from day 105 of gestation until day 3 of lactation; cited from earlier work
rats = settings: when folate was sufficient; cited from earlier work
[2] = test system: commercial finishing pigs (PIC 800×PIC 1050); test: Carcass characteristics of finishing pigs fed increasing dietary 78% Na-DMG (Example 1); type: in vivo; settings: for 10th-rib backfat depth reduction (numerical) / Loin depth improvement compared to Control: carcasses; for Loin depth improvement compared to Control: P<0.05
Procedure: A study was conducted to evaluate the impact of increasing dietary levels of 78% Na-DMG on carcass characteristics of commercial finishing pigs (PIC 800×PIC 1050). A total of 723 mixed-sex finishing pigs (initial BW=179.5±1.0 lb) were housed in pens with 25 to 27 pigs per pen. […] This experiment extended over a 6-week period until pigs were harvested at 292.5±1.7 lb of BW.

broilers = settings: cited from earlier work
[3] = Calculated wean-to-finish performance and greenhouse gas emissions, Pork Sustainability Calculator (Example 7); parameters: species or system pigs; settings: DMG @ 0.5 lb/ton in late finishing
Source text: as §1

[4] = Na-DMG 0.50 lb/ton, approx. 180 to 290 lb BW, 6 to 8 weeks

**Q.** Which “Serum NEFA reduction compared to Control” value (lactating sows) does the source give for `CN(C)CC(=O)O` [DMG, N,N-dimethylglycine] here?
**A.** 32%

**Q.** And the “Total milk fat, % (Day 10-14 in lactation)” value (sows (PIC 1050); 0.5 lb/ton from day 100 of gestation through lactation)?
**A.** 6.114%

**Q.** And the “Total milk fat, % (Day 10-14 in lactation)” value (sows (PIC 1050); 0.5 lb/ton from farrowing through lactation)?
**A.** 5.973%

**Q.** What about the “Closeout F/G, late finishing testing period” value (finishing pigs; DMG @ 0.5 lb/ton) of the same molecule?
**A.** 3.30

**Q.** And the “Closeout F/G, late finishing testing period, % Change vs Control” value (finishing pigs; DMG @ 0.5 lb/ton)?
**A.** −4.6%

**Q.** What about the “Mortality, late finishing testing period, % Change vs Control” value (finishing pigs; DMG @ 0.5 lb/ton) of the same molecule?
**A.** −39.0%

**Q.** What about the “Reduction of morbidity compared to Control” value (finishing pigs; Na-DMG 0.50 lb/ton) of the same molecule?
**A.** 72%

**Q.** What about the “Reduction of total removal compared to Control” value (finishing pigs; Na-DMG 0.50 lb/ton) of the same molecule?
**A.** 53%

**Q.** What about the Morbidity (finishing pigs; [4]) of the same molecule?
**A.** 0.36%

**Q.** And the Mortality (finishing pigs; [4])?
**A.** 1.08%

**Q.** What about the “Non-selected (culls and lights)” value (finishing pigs; [4]) of the same molecule?
**A.** 5.48%

**Q.** What about the “Pigs sold to primary market” value (finishing pigs; [4]) of the same molecule?
**A.** 93.1%

**Q.** And the Total pigs finished (finishing pigs; [4])?
**A.** 98.6%

**Q.** What about the Total removal (finishing pigs; [4]) of the same molecule?
**A.** 1.44%

**Q.** What about the “Lameness (pigs removed to hospital pens due to lameness)” value (growing pigs; DMG_0.25 (0.25 lb DMG/ton feed), 17-wk) of the same molecule?
**A.** 0.3%^d

**Q.** And the “Lameness (pigs removed to hospital pens due to lameness)” value (growing pigs; DMG_0.50 (0.50 lb DMG/ton feed), 17-wk)?
**A.** 0.7%^cd

**Q.** What about the “Lameness (pigs removed to hospital pens due to lameness)” value (growing pigs; DMG_0.75, 17-wk) of the same molecule?
**A.** 1.4%^cd

**Q.** And the “Incidence of lameness compared to Control” value (growing pigs; regardless of dietary concentration, statistically (P<0.10) or numerically (P>0.10))?
**A.** reduced incidence of lameness

**Q.** And the “Carcass characteristics (hot carcass weight, carcass yield, fat depth, loin depth, fat-free carcass lean)” value ([1]; 0.25, 0.5 and 1.0 g DMG/kg feed vs Control)?
**A.** not different among treatments

**Q.** What about the ADFI ([1]; 0.25 g DMG/kg feed) of the same molecule?
**A.** 3.00^b kg/day

**Q.** What about the Carcass yield ([1]; 0.25 g DMG/kg feed) of the same molecule?
**A.** 72.6%

**Q.** What about the “Closeout ADG” value ([1]; 0.25 g DMG/kg feed) of the same molecule?
**A.** 1.01 kg/day and 1.01^y kg/day

**Q.** And the “Closeout G/F” value ([1]; 0.25 g DMG/kg feed)?
**A.** 0.337

**Q.** And the “End BW” value ([1]; 0.25 g DMG/kg feed)?
**A.** 126.4 kg

**Q.** What about the Fat depth ([1]; 0.25 g DMG/kg feed) of the same molecule?
**A.** 16.6 mm

**Q.** And the Fat-free carcass lean ([1]; 0.25 g DMG/kg feed)?
**A.** 56.2%

**Q.** And the Hot carcass weight ([1]; 0.25 g DMG/kg feed)?
**A.** 93.5 kg

**Q.** And the Loin depth ([1]; 0.25 g DMG/kg feed)?
**A.** 62.5 mm

**Q.** And the “Non-selected pigs (lights and culls)” value ([1]; 0.25 g DMG/kg feed)?
**A.** 8.7%

**Q.** What about the “Increase in closeout ADG compared with Control” value ([1]; 0.25 g DMG/kg feed, P=0.02) of the same molecule?
**A.** 6%

**Q.** And the “Increase in closeout G/F compared with Control” value ([1]; 0.25 g DMG/kg feed, P=0.05)?
**A.** 4%

**Q.** What about the ADFI ([1]; 0.5 g DMG/kg feed) of the same molecule?
**A.** 2.93^a kg/day

**Q.** What about the Carcass yield ([1]; 0.5 g DMG/kg feed) of the same molecule?
**A.** 73.6%

**Q.** And the “Closeout ADG” value ([1]; 0.5 g DMG/kg feed)?
**A.** 0.95^x kg/day

**Q.** What about the “Closeout G/F” value ([1]; 0.5 g DMG/kg feed) of the same molecule?
**A.** 0.326

**Q.** What about the “End BW” value ([1]; 0.5 g DMG/kg feed) of the same molecule?
**A.** 124.9 kg

**Q.** What about the Fat depth ([1]; 0.5 g DMG/kg feed) of the same molecule?
**A.** 17.0 mm

**Q.** And the Fat-free carcass lean ([1]; 0.5 g DMG/kg feed)?
**A.** 56.0%

**Q.** What about the Hot carcass weight ([1]; 0.5 g DMG/kg feed) of the same molecule?
**A.** 94.1 kg

**Q.** What about the Loin depth ([1]; 0.5 g DMG/kg feed) of the same molecule?
**A.** 62.2 mm

**Q.** What about the Morbidity ([1]; 0.5 g DMG/kg feed) of the same molecule?
**A.** 0.7^cd %

**Q.** And the Mortality ([1]; 0.5 g DMG/kg feed)?
**A.** 2.5^d %

**Q.** What about the “Non-selected pigs (lights and culls)” value ([1]; 0.5 g DMG/kg feed) of the same molecule?
**A.** 9.4%

**Q.** What about the “Pigs sold to primary market” value ([1]; 0.5 g DMG/kg feed) of the same molecule?
**A.** 87.4%

**Q.** And the ADFI ([1]; 1.0 g DMG/kg feed)?
**A.** 2.99^ab kg/day

**Q.** And the Carcass yield ([1]; 1.0 g DMG/kg feed)?
**A.** 73.8%

**Q.** What about the “Closeout ADG” value ([1]; 1.0 g DMG/kg feed) of the same molecule?
**A.** 0.97^xy kg/day

**Q.** What about the “Closeout G/F” value ([1]; 1.0 g DMG/kg feed) of the same molecule?
**A.** 0.323

**Q.** What about the “End BW” value ([1]; 1.0 g DMG/kg feed) of the same molecule?
**A.** 125.8 kg

**Q.** And the Fat depth ([1]; 1.0 g DMG/kg feed)?
**A.** 16.8 mm

**Q.** What about the Fat-free carcass lean ([1]; 1.0 g DMG/kg feed) of the same molecule?
**A.** 56.0%

**Q.** And the Hot carcass weight ([1]; 1.0 g DMG/kg feed)?
**A.** 94.2 kg

**Q.** And the Loin depth ([1]; 1.0 g DMG/kg feed)?
**A.** 61.7 mm

**Q.** What about the Morbidity ([1]; 1.0 g DMG/kg feed) of the same molecule?
**A.** 2.2^d %

**Q.** What about the Mortality ([1]; 1.0 g DMG/kg feed) of the same molecule?
**A.** 1.4^cd %

**Q.** And the “Non-selected pigs (lights and culls)” value ([1]; 1.0 g DMG/kg feed)?
**A.** 6.5%

**Q.** What about the “Pigs sold to primary market” value ([1]; 1.0 g DMG/kg feed) of the same molecule?
**A.** 90.0%

**Q.** What about the “Growth performance and livability compared with Control” value ([1]; DMG at 0.5 and 1.0 g/kg, P>0.10) of the same molecule?
**A.** not different compared with Control

**Q.** And the Nutrient digestibility (sows)?
**A.** improved nutrient digestibility

**Q.** And the Plasma homocysteine level (rats)?
**A.** significantly reduced

**Q.** And the Fat-free carcass lean ([2]; DMG at 0.25 lb/ton, P<0.10)?
**A.** tended to be improved

**Q.** And the “10th-rib backfat depth reduction (numerical)” value ([2]; DMG at 0.25 lb/ton)?
**A.** 3.4%

**Q.** And the “Loin depth improvement compared to Control” value ([2]; DMG at 0.25 lb/ton)?
**A.** 2.5%

**Q.** And the “10th-rib backfat depth reduction (numerical)” value ([2]; DMG at 0.50 lb/ton)?
**A.** 2.3%

**Q.** What about the “Loin depth improvement compared to Control” value ([2]; DMG at 0.75 lb/ton) of the same molecule?
**A.** 3.5%

**Q.** And the “Loin depth, response to increasing dietary DMG level” value ([2]; increasing dietary DMG level, P=0.04)?
**A.** linearly improved

**Q.** What about the Nutrient digestibility (broilers) of the same molecule?
**A.** improved nutrient digestibility

**Q.** And the “Calculated wean-to-finish closeout F/G, % Change vs Control” value [3]?
**A.** −2.6%

**Q.** What about the “Calculated wean-to-finish mortality, % Change vs Control” value [3] of the same molecule?
**A.** −18.3%

**Q.** What about the Calculated wean-to-finish mortality ([3]; early mortality rate of 2% combined) of the same molecule?
**A.** 3.08%

**Q.** What about the “Calculated wean-to-finish closeout F/G” value ([3]; feed budget of 353 lb per pig combined) of the same molecule?
**A.** 2.58
